Experimental data: PubChem BioAssay AID1963984 (Molecular Pharmacology Branch, DTP, NCI, 2024)

Test system: 233499-124-R-J3-PDC spheroids with HUVEC/MSC, viability
Test: Anticancer human tumor 233499-124-R-J3-PDC patient-derived colon adenocarcinoma cell line growth inhibition [PI3K]
Details: for IC50: curve of first compound; for viability, T/C: stronger effect = lower value; active means viability on the fitted dose curve at most 10% of control; inactive means the rest
Procedure, shortened: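 Combination activity was assessed by viability in multicellular tumor spheroids carrying HUVEC and MSC components. Agents were tested with PI3K inhibitors from a Cmax-based top dose (or 10 microM) downward in half-log increments.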

[1] = second compound 0.0316 µM, first compound 0.0316 µM
[2] = second compound 0.0316 µM, first compound 0.1 µM
[3] = second compound 0.0316 µM, first compound 0.316 µM
[4] = second compound 0.0316 µM, first compound 1 µM
[5] = second compound 0.0316 µM, first compound 3.16 µM
[6] = second compound 0.0316 µM, first compound 10 µM
[7] = second compound 0.1 µM, first compound 0.0316 µM
[8] = second compound 0.1 µM, first compound 0.1 µM
[9] = second compound 0.1 µM, first compound 0.316 µM
[10] = second compound 0.1 µM, first compound 1 µM
[11] = second compound 0.1 µM, first compound 3.16 µM
[12] = second compound 0.1 µM, first compound 10 µM
[13] = second compound 0.316 µM, first compound 0.0316 µM
[14] = second compound 0.316 µM, first compound 0.1 µM
[15] = second compound 0.316 µM, first compound 0.316 µM
[16] = second compound 0.316 µM, first compound 1 µM
[17] = second compound 0.316 µM, first compound 3.16 µM
[18] = second compound 0.316 µM, first compound 10 µM
[19] = second compound 1 µM, first compound 0.0316 µM
[20] = second compound 1 µM, first compound 0.1 µM
[21] = second compound 1 µM, first compound 0.316 µM
[22] = second compound 1 µM, first compound 1 µM
[23] = second compound 1 µM, first compound 3.16 µM
[24] = second compound 1 µM, first compound 10 µM
[25] = second compound 3.16 µM, first compound 0.0316 µM
[26] = second compound 3.16 µM, first compound 0.1 µM
[27] = second compound 3.16 µM, first compound 0.316 µM
[28] = second compound 3.16 µM, first compound 1 µM
[29] = second compound 3.16 µM, first compound 3.16 µM
[30] = second compound 3.16 µM, first compound 10 µM
[31] = second compound 10 µM, first compound 0.0316 µM
[32] = second compound 10 µM, first compound 0.1 µM
[33] = second compound 10 µM, first compound 0.316 µM
[34] = second compound 10 µM, first compound 1 µM
[35] = second compound 10 µM, first compound 3.16 µM
[36] = second compound 10 µM, first compound 10 µM
[37] = second compound 0.0316 µM, first compound 0.00316 µM
[38] = second compound 0.0316 µM, first compound 0.01 µM
[39] = second compound 0.1 µM, first compound 0.00316 µM
[40] = second compound 0.1 µM, first compound 0.01 µM
[41] = second compound 0.316 µM, first compound 0.00316 µM
[42] = second compound 0.316 µM, first compound 0.01 µM
[43] = second compound 1 µM, first compound 0.00316 µM
[44] = second compound 1 µM, first compound 0.01 µM
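Further: spheroids exposed to agents for seven days before readout.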
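Wherever viability, T/C is given: percent viability relative to DMSO vehicle control taken as 100%.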

CC(Cn1ccc(-c2ccc(C#N)c(Cl)c2)n1)NC(=O)c1cc(C(C)O)[nH]n1 (stereo not drawn) + CC(Nc1ncnc2nc[nH]c12)c1cc2cccc(Cl)c2c(=O)n1-c1ccccc1
inactive: viability, T/C [1] 100% | viability, T/C [2] 84.7% | viability, T/C [3] 93.2% | viability, T/C [4] 91.9% | viability, T/C [5] 109% | viability, T/C [6] 75% | viability, T/C [7] 98.2% | viability, T/C [8] 91.6% | viability, T/C [9] 81.5% | viability, T/C [10] 94.6% | viability, T/C [11] 68.8% | viability, T/C [12] 92.2% | viability, T/C [13] 87.3% | viability, T/C [14] 101% | viability, T/C [15] 73.3% | viability, T/C [16] 99.6% | viability, T/C [17] 100% | viability, T/C [18] 101% | viability, T/C [19] 96.2% | viability, T/C [20] 95.8% | viability, T/C [21] 81.4% | viability, T/C [22] 110% | viability, T/C [23] 92.9% | viability, T/C [24] 90.6% | viability, T/C [25] 91.6% | viability, T/C [26] 96.5% | viability, T/C [27] 78.1% | viability, T/C [28] 88.7% | viability, T/C [29] 78.3% | viability, T/C [30] 86.5% | viability, T/C [31] 86.1% | viability, T/C [32] 96.3% | viability, T/C [33] 83.2% | viability, T/C [34] 102% | viability, T/C [35] 75.5% | viability, T/C [36] 93.3%
> 10000 nM: IC50 (second compound 0.0316 µM) | IC50 (second compound 0.1 µM) | IC50 (second compound 0.316 µM) | IC50 (second compound 1 µM) | IC50 (second compound 3.16 µM) | IC50 (second compound 10 µM)

CCN1CCN(Cc2ccc(Nc3ncc(F)c(-c4cc(F)c5nc(C)n(C(C)C)c5c4)n3)nc2)CC1 + CC(Nc1ncnc2nc[nH]c12)c1cc2cccc(Cl)c2c(=O)n1-c1ccccc1
788 nM: IC50 (second compound 0.316 µM)
916 nM: IC50 (second compound 0.0316 µM)
inactive: viability, T/C [37] 102% | viability, T/C [38] 93.5% | viability, T/C [1] 83.2% | viability, T/C [2] 70.1% | viability, T/C [3] 61.5% | viability, T/C [4] 48.5% | viability, T/C [39] 101% | viability, T/C [40] 108% | viability, T/C [7] 86.7% | viability, T/C [8] 73.8% | viability, T/C [9] 61.4% | viability, T/C [10] 47% | viability, T/C [41] 97.1% | viability, T/C [42] 87.3% | viability, T/C [13] 85.4% | viability, T/C [14] 84.2% | viability, T/C [15] 66.3% | viability, T/C [16] 45.2% | viability, T/C [43] 104% | viability, T/C [44] 90.8% | viability, T/C [19] 76% | viability, T/C [20] 83.8% | viability, T/C [21] 54.3% | viability, T/C [22] 50.8% | viability, T/C (second compound 3.16 µM, first compound 0.00316 µM) 80.2% | viability, T/C (second compound 3.16 µM, first compound 0.01 µM) 79.2% | viability, T/C [25] 95.2% | viability, T/C [26] 72.6% | viability, T/C [27] 39% | viability, T/C [28] 32.8% | viability, T/C (second compound 10 µM, first compound 0.00316 µM) 75.9% | viability, T/C (second compound 10 µM, first compound 0.01 µM) 73.7% | viability, T/C [31] 90.8% | viability, T/C [32] 57% | viability, T/C [33] 51% | viability, T/C [34] 38.4%
963 nM: IC50 (second compound 1 µM)
832 nM: IC50 (second compound 0.1 µM)
193 nM: IC50 (second compound 10 µM)
214 nM: IC50 (second compound 3.16 µM)

CC1(C)CCC(CN2CCN(c3ccc(C(=O)NS(=O)(=O)c4ccc(NCC5CCOCC5)c([N+](=O)[O-])c4)c(Oc4cnc5[nH]ccc5c4)c3)CC2)=C(c2ccc(Cl)cc2)C1 + CC(Nc1ncnc2nc[nH]c12)c1cc2cccc(Cl)c2c(=O)n1-c1ccccc1
5390 nM: IC50 (second compound 1 µM)
active: viability, T/C [6] 6.26% | viability, T/C [12] 2.9% | viability, T/C [18] 2.85% | viability, T/C [24] 2.36% | viability, T/C [30] 2.35% | viability, T/C [36] 5.61%
5690 nM: IC50 (second compound 0.0316 µM)
4740 nM: IC50 (second compound 3.16 µM)
5450 nM: IC50 (second compound 10 µM)
5600 nM: IC50 (second compound 0.1 µM)
inactive: viability, T/C [1] 87.4% | viability, T/C [2] 101% | viability, T/C [3] 95.4% | viability, T/C [4] 96.6% | viability, T/C [5] 96.2% | viability, T/C [7] 89.9% | viability, T/C [8] 98.7% | viability, T/C [9] 87.5% | viability, T/C [10] 99.6% | viability, T/C [11] 106% | viability, T/C [13] 116% | viability, T/C [14] 92.6% | viability, T/C [15] 89.8% | viability, T/C [16] 95.4% | viability, T/C [17] 96.7% | viability, T/C [19] 96.5% | viability, T/C [20] 83.6% | viability, T/C [21] 103% | viability, T/C [22] 90.3% | viability, T/C [23] 91.2% | viability, T/C [25] 81.8% | viability, T/C [26] 84.7% | viability, T/C [27] 98.8% | viability, T/C [28] 97.1% | viability, T/C [29] 76% | viability, T/C [31] 79.6% | viability, T/C [32] 94% | viability, T/C [33] 86.8% | viability, T/C [34] 94.7% | viability, T/C [35] 93.1%
5610 nM: IC50 (second compound 0.316 µM)

CC(C)n1nc(-c2ccc3oc(N)nc3c2)c2c(N)ncnc21 + COc1c(OCCCN2CCOCC2)ccc2c3n(c(=NC(=O)c4cnc(N)nc4)nc12)CCN3
< 0.316 nM: IC50 (second compound 0.316 µM) | IC50 (second compound 1 µM)
54.9 nM: IC50 (second compound 0.0316 µM)
5.17 nM: IC50 (second compound 0.1 µM)
active: viability, T/C (second compound 1 µM, first compound 0.000316 µM) 7.93% | viability, T/C (second compound 1 µM, first compound 0.001 µM) 6.08% | viability, T/C [43] 9.7% | viability, T/C [44] 5.56% | viability, T/C [19] 8.2% | viability, T/C [20] 2.93%
inactive: viability, T/C (second compound 0.00316 µM, first compound 0.000316 µM) 98.3% | viability, T/C (second compound 0.00316 µM, first compound 0.001 µM) 90.8% | viability, T/C (second compound 0.00316 µM, first compound 0.00316 µM) 74.6% | viability, T/C (second compound 0.00316 µM, first compound 0.01 µM) 80.3% | viability, T/C (second compound 0.00316 µM, first compound 0.0316 µM) 83% | viability, T/C (second compound 0.00316 µM, first compound 0.1 µM) 65.1% | viability, T/C (second compound 0.01 µM, first compound 0.000316 µM) 84.1% | viability, T/C (second compound 0.01 µM, first compound 0.001 µM) 76.4% | viability, T/C (second compound 0.01 µM, first compound 0.00316 µM) 87.8% | viability, T/C (second compound 0.01 µM, first compound 0.01 µM) 80.5% | viability, T/C (second compound 0.01 µM, first compound 0.0316 µM) 62.3% | viability, T/C (second compound 0.01 µM, first compound 0.1 µM) 60.2% | viability, T/C (second compound 0.0316 µM, first compound 0.000316 µM) 79.9% | viability, T/C (second compound 0.0316 µM, first compound 0.001 µM) 86.5% | viability, T/C [37] 73.7% | viability, T/C [38] 80.6% | viability, T/C [1] 71% | viability, T/C [2] 27% | viability, T/C (second compound 0.1 µM, first compound 0.000316 µM) 77.5% | viability, T/C (second compound 0.1 µM, first compound 0.001 µM) 51.7% | viability, T/C [39] 56% | viability, T/C [40] 46.8% | viability, T/C [7] 38.7% | viability, T/C [8] 16.9% | viability, T/C (second compound 0.316 µM, first compound 0.000316 µM) 28.4% | viability, T/C (second compound 0.316 µM, first compound 0.001 µM) 31.3% | viability, T/C [41] 33.6% | viability, T/C [42] 18.6% | viability, T/C [13] 17.2% | viability, T/C [14] 9.14%
> 100 nM: IC50 (second compound 0.00316 µM) | IC50 (second compound 0.01 µM)
